Data published in the NIST ThermoML archive (doi:10.1016/j.tca.2014.05.029).
± gives the expanded uncertainty stated by the source.

Assays:
[1] = Molar enthalpy of transition or fusion; conditions: Crystal; DSC
[2] = molar heat capacity at constant pressure; conditions: 101.33 kPa, Liquid, Small sample (50 mg) DSC
[3] = Crystal; DTA

OC[C@H]1O[C@@](CO)(O[C@H]2O[C@H](CO)[C@@H](O)[C@H](O)[C@H]2O)[C@@H](O)[C@@H]1O [D-sucrose]
Conditions	Molar enthalpy of transition or fusion [kcal/mol]	Normal melting temperature [°C]
[1]	7.65 ± 0.239	–
[3]	–	151.2 ± 0.5

[2]
Conditions	molar heat capacity at constant pressure [J/K/mol]
331 K	746.98 ± 15
340 K	756.97 ± 15
350 K	768.07 ± 15
360 K	779.17 ± 16
370 K	790.27 ± 16
380 K	801.37 ± 16
390 K	812.47 ± 16
400 K	823.57 ± 16
410 K	834.67 ± 17
420 K	845.77 ± 17
424 K	850.21 ± 17
430 K	856.87 ± 17
440 K	867.97 ± 17
450 K	879.07 ± 18
460 K	890.17 ± 18
470 K	901.27 ± 18
480 K	912.37 ± 18
490 K	923.47 ± 18
500 K	934.57 ± 19
510 K	945.67 ± 19
520 K	956.77 ± 19
530 K	967.87 ± 19
540 K	978.97 ± 20
550 K	990.07 ± 20
560 K	1001.2 ± 20
570 K	1012.3 ± 20
580 K	1023.4 ± 20
590 K	1034.5 ± 21
600 K	1045.6 ± 21
